Test results from ChEMBL document CHEMBL1201862, “PubChem BioAssay data set” (2004).
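All cell lines were grown in 96-well plates and treated with compound for 48 hours. The concentration for 50% growth inhibition is given as GI50.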 The source made the active and inactive calls. Cut-off read from the data, not from the text of the source: active = GI50 up to about 1.1 µM and inactive = higher.

Experiments:
Assay in all cases: NCI-60 cell line screen, 48 h
NCI-H460 = test system: NCI-H460
ACHN = test system: ACHN
CCRF-CEM = test system: CCRF-CEM
RXF 393 = test system: RXF 393
DU-145 = test system: DU-145
KM12 = test system: KM12
CAKI-1 = test system: CAKI-1
K562 = test system: K562
786-0 = test system: 786-0
MCF7 = test system: MCF7
MDA-MB-435 = test system: MDA-MB-435
SK-OV-3 = test system: SK-OV-3
Malme-3M = test system: Malme-3M
MDA-MB-231 = test system: MDA-MB-231
EKVX = test system: EKVX
UACC-257 = test system: UACC-257
LOX IMVI = test system: LOX IMVI
SN12C = test system: SN12C
SK-MEL-2 = test system: SK-MEL-2
SF-539 = test system: SF-539
HCC 2998 = test system: HCC 2998
OVCAR-8 = test system: OVCAR-8
SF-295 = test system: SF-295
MDA-N = test system: MDA-N
HCT-116 = test system: HCT-116
SK-MEL-5 = test system: SK-MEL-5
HL-60 = test system: HL-60
UACC-62 = test system: UACC-62
T47D = test system: T47D
SNB-19 = test system: SNB-19
U-251 = test system: U-251
Hs-578T = test system: Hs-578T
IGROV-1 = test system: IGROV-1
PC-3 = test system: PC-3
HCT-15 = test system: HCT-15
SK-MEL-28 = test system: SK-MEL-28
A549 = test system: A549
SNB-75 = test system: SNB-75
MOLT-4 = test system: MOLT-4
M14 = test system: M14
NCI-H226 = test system: NCI-H226
BT-549 = test system: BT-549
HOP-92 = test system: HOP-92
OVCAR-5 = test system: OVCAR-5
COLO 205 = test system: COLO 205
SR = test system: SR
HOP-62 = test system: HOP-62
OVCAR-3 = test system: OVCAR-3
RPMI-8226 = test system: RPMI-8226
NCI/ADR-RES = test system: NCI/ADR-RES
SF-268 = test system: SF-268
OVCAR-4 = test system: OVCAR-4
NCI-H23 = test system: NCI-H23
TK-10 = test system: TK-10
UO-31 = test system: UO-31
HT-29 = test system: HT-29
SW-620 = test system: SW-620
NCI-H522 = test system: NCI-H522

## CCOC(=O)CON=c1c2ccccc2ccc2ccccc12
NCI-H460
  GI50: > 100 µM (inactive)
ACHN
  GI50: > 100 µM (inactive)
CCRF-CEM
  GI50: > 100 µM (inactive)
RXF 393
  GI50: > 100 µM (inactive)
DU-145
  GI50: > 100 µM (inactive)
KM12
  GI50: > 100 µM (inactive)
CAKI-1
  GI50: > 100 µM (inactive)
K562
  GI50: > 100 µM (inactive)
786-0
  GI50: > 100 µM (inactive)
MCF7
  GI50: > 100 µM (inactive)
MDA-MB-435
  GI50: > 100 µM (inactive)
SK-OV-3
  GI50: > 100 µM (inactive)
Malme-3M
  GI50: > 100 µM (inactive)
MDA-MB-231
  GI50: > 100 µM (inactive)
EKVX
  GI50: > 100 µM (inactive)
UACC-257
  GI50: > 100 µM (inactive)
LOX IMVI
  GI50: > 100 µM (inactive)
SN12C
  GI50: > 100 µM (inactive)
SK-MEL-2
  GI50: > 100 µM (inactive)
SF-539
  GI50: > 100 µM (inactive)
HCC 2998
  GI50: 26.1 µM (inactive)
OVCAR-8
  GI50: > 100 µM (inactive)
SF-295
  GI50: > 100 µM (inactive)
MDA-N
  GI50: > 100 µM (inactive)
HCT-116
  GI50: > 100 µM (inactive)
SK-MEL-5
  GI50: > 100 µM (inactive)
HL-60
  GI50: > 100 µM (inactive)
UACC-62
  GI50: > 100 µM (inactive)
T47D
  GI50: > 100 µM (inactive)
SNB-19
  GI50: > 100 µM (inactive)
U-251
  GI50: > 100 µM (inactive)
Hs-578T
  GI50: > 100 µM (inactive)
IGROV-1
  GI50: > 100 µM (inactive)
PC-3
  GI50: > 100 µM (inactive)
HCT-15
  GI50: > 100 µM
SK-MEL-28
  GI50: > 100 µM (inactive)
A549
  GI50: > 100 µM (inactive)
SNB-75
  GI50: > 100 µM (inactive)
MOLT-4
  GI50: > 100 µM (inactive)
M14
  GI50: > 100 µM (inactive)
NCI-H226
  GI50: > 100 µM (inactive)
BT-549
  GI50: > 100 µM (inactive)
HOP-92
  GI50: > 100 µM (inactive)
OVCAR-5
  GI50: > 100 µM (inactive)
COLO 205
  GI50: > 100 µM (inactive)
SR
  GI50: > 100 µM (inactive)
HOP-62
  GI50: > 100 µM (inactive)
OVCAR-3
  GI50: > 100 µM (inactive)
RPMI-8226
  GI50: > 100 µM (inactive)
NCI/ADR-RES
  GI50: > 100 µM (inactive)
SF-268
  GI50: > 100 µM (inactive)
OVCAR-4
  GI50: > 100 µM (inactive)
NCI-H23
  GI50: > 100 µM (inactive)
TK-10
  GI50: > 100 µM (inactive)
UO-31
  GI50: > 100 µM (inactive)
HT-29
  GI50: > 100 µM (inactive)
SW-620
  GI50: > 100 µM (inactive)

## CC1=C(C(=O)OCc2ccncc2)C(C2=C(C)SCCS2)C(C(=O)OCc2ccncc2)=C(C)N1
NCI-H460
  GI50: 23.4 µM (inactive)
ACHN
  GI50: 34.5 µM (inactive)
CCRF-CEM
  GI50: 17.7 µM (inactive)
RXF 393
  GI50: 12 µM (inactive)
DU-145
  GI50: 29.4 µM (inactive)
NCI-H522
  GI50: 22.8 µM (inactive)
KM12
  GI50: 21.3 µM (inactive)
CAKI-1
  GI50: 26.3 µM (inactive)
K562
  GI50: 20 µM (inactive)
786-0
  GI50: 28.6 µM (inactive)
MCF7
  GI50: 20.8 µM (inactive)
MDA-MB-435
  GI50: 17.8 µM (inactive)
SK-OV-3
  GI50: 26.6 µM (inactive)
MDA-MB-231
  GI50: 26.9 µM (inactive)
EKVX
  GI50: 21.2 µM (inactive)
UACC-257
  GI50: 17.1 µM (inactive)
LOX IMVI
  GI50: 18.8 µM (inactive)
SN12C
  GI50: 25.1 µM (inactive)
SF-539
  GI50: 16.4 µM (inactive)
HCC 2998
  GI50: > 10 µM (inactive)
OVCAR-8
  GI50: 26.4 µM (inactive)
SF-295
  GI50: 18.2 µM (inactive)
MDA-N
  GI50: 30.5 µM (inactive)
HCT-116
  GI50: 15.1 µM (inactive)
SK-MEL-5
  GI50: 15.3 µM (inactive)
HL-60
  GI50: 25.4 µM (inactive)
UACC-62
  GI50: 16.3 µM (inactive)
T47D
  GI50: 16.1 µM (inactive)
SNB-19
  GI50: 29.1 µM (inactive)
U-251
  GI50: 16.7 µM (inactive)
Hs-578T
  GI50: 10.6 µM (inactive)
IGROV-1
  GI50: 62.5 µM (inactive)
PC-3
  GI50: 20.9 µM (inactive)
HCT-15
  GI50: 25.6 µM
SK-MEL-28
  GI50: 16.8 µM (inactive)
A549
  GI50: 33.3 µM (inactive)
SNB-75
  GI50: 15.8 µM (inactive)
MOLT-4
  GI50: 15.3 µM (inactive)
M14
  GI50: 28.7 µM (inactive)
NCI-H226
  GI50: 18.5 µM (inactive)
BT-549
  GI50: 20.4 µM (inactive)
HOP-92
  GI50: 12.3 µM (inactive)
OVCAR-5
  GI50: 40.7 µM (inactive)
COLO 205
  GI50: 22.2 µM (inactive)
SR
  GI50: 33.6 µM (inactive)
HOP-62
  GI50: 21.7 µM (inactive)
OVCAR-3
  GI50: 19.3 µM (inactive)
NCI/ADR-RES
  GI50: 37.4 µM (inactive)
SF-268
  GI50: 33 µM (inactive)
OVCAR-4
  GI50: 38.3 µM (inactive)
NCI-H23
  GI50: 24.2 µM (inactive)
TK-10
  GI50: 40.8 µM (inactive)
UO-31
  GI50: 17.5 µM (inactive)
HT-29
  GI50: 17.9 µM (inactive)
SW-620
  GI50: 25.6 µM (inactive)
